In patent US10124004B2, “Pyrido[3,4-d]pyrimidine derivative and pharmaceutically acceptable salt thereof” (Teijin Pharma Limited, priority 2015, dated 2018):
Read-outs that look alike come from different tables or passages of the source.

Legend:
CDK4/cyclin D3 = target: T1, CDK4/cyclin D3 (Homo sapiens, UniProt P11802); experiment: Human CDK4/cyclin D3 inhibitory activity (QS S Assist CDK4/Cyclin D3_FP Kit, IMAP fluorescence polarization); type: biochemical
T1 construct: purchased Carna Biosciences, Inc. QS S Assist CDK4/Cyclin D3_FP Kit
Procedure, shortened: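 Percent inhibition, relative to DMSO with and without enzyme, was curve-fitted to give IC50 from polarization (ex 485, em 535 nm). The 45-min room-temperature reaction used 12.5-25 ng/well enzyme, kit ATP/substrate/metal mix, and HEPES pH 7.4 buffer with Tween20 and DTT, followed by 30-min IMAP binding in the dark.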

CDK2/cyclin A2 = target: T2, CDK2/cyclin A2 (Homo sapiens, UniProt P24941); experiment: Human CDK2/cyclin A2 inhibitory activity (QS S Assist CDK2/Cyclin A2_FP Kit, IMAP fluorescence polarization); type: biochemical
T2 construct: purchased Carna Biosciences, Inc. QS S Assist CDK2/Cyclin A2_FP Kit
Procedure, shortened: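 Kinase activity read as fluorescence polarization (485/535 nm) after phosphorylated fluorescent substrate binds IMAP reagent (30 min, RT, dark). Enzyme (2.5 ng/well) reacted 60 min at RT with ATP/substrate/metal in HEPES pH 7.4 buffer with Tween 20 and DTT; no-enzyme wells define 0% activity; IC50 by curve fit.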

[1] = Human CDK4/cyclin D3 inhibitory activity, read-out: CDK4 Activity symbol
[2] = Human CDK2/cyclin A2 inhibitory activity, read-out: CDK2 Activity symbol
[3] = 50% inhibitory concentration against CDK4/cyclin D3, given as class symbol
[4] = 50% inhibitory concentration against CDK2/cyclin A2, given as class symbol

T1 sequence (P11802 whole entry): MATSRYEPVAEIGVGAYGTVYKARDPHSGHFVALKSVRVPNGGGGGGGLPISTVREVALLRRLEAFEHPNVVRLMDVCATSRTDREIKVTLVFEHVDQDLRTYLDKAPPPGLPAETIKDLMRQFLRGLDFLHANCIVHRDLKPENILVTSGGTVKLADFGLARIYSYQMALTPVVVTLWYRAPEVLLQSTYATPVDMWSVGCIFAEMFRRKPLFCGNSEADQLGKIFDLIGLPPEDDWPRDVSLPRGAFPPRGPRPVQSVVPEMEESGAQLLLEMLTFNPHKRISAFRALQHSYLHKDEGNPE
T1 sequence (P30281 whole entry partner): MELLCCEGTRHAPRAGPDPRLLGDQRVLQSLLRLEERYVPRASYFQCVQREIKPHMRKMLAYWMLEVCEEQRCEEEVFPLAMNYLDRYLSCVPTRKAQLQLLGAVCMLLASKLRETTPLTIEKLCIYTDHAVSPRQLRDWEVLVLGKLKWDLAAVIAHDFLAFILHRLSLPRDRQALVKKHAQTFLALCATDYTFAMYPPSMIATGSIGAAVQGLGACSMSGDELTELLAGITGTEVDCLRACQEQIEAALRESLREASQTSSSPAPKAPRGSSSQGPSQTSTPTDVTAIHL

Row | IC50 (CDK4/cyclin D3; [1]) | IC50 (CDK2/cyclin A2; [2]) | IC50 (CDK4/cyclin D3; [3]) | IC50 (CDK2/cyclin A2; [4]) | SMILES
1 | ≥ 0.1 µM | ≥ 0.1 µM | – | – | CC(C)Nc1nc(C(F)F)cc2cnc(Nc3ccc(-c4ccc(O)cc4)cn3)nc12 [Compound 110]
2 | ≥ 0.1 µM | ≥ 0.1 µM | – | – | C[C@@H](O)c1cc2cnc(Nc3ccc(N4CCNCC4)nn3)nc2c(NC2CCCC2C(=O)O)n1 (stereo partly drawn) [Compound 309]
3 | – | – | 0.01 to 0.1 µM | ≥ 0.1 µM | CCC(OC)c1cc2cnc(Nc3ccc(CN4CCNCC4)cn3)nc2c(NC(C)C)n1 (stereo not drawn) [Compound 1066]
4 | < 0.01 µM | ≥ 0.1 µM | – | – | CC(C)Nc1nc(C(F)F)cc2cnc(Nc3ccc(CNS(C)(=O)=O)cn3)nc12 [Compound 140]
5 | – | – | < 0.01 µM | ≥ 0.1 µM | CC(C)Nc1nc(C(C)O)cc2cnc(Nc3ccc(N4CCNCC4C(F)(F)F)cn3)nc12 (single isomer, unassigned) [Compound 775]
6 | < 0.01 µM | 0.01 to 0.1 µM | – | – | CC(C)Nc1nc(C(F)F)cc2cnc(Nc3ccc(CN4CCNC4=O)cn3)nc12 [Compound 213]
7 | – | – | 0.01 to 0.1 µM | ≥ 0.1 µM | CO[C@H](C)c1cc2cnc(Nc3ccc(N4CCN(CC(=O)O)CC4=O)cn3)nc2c(NC(C)C)n1 [Compound 894]
8 | – | – | 0.01 to 0.1 µM | ≥ 0.1 µM | CC(C)Nc1nc(C2CCCO2)cc2cnc(Nc3ccc(CN4CCNCC4)cn3)nc12 (single isomer, unassigned) [Compound 730]
9 | 0.01 to 0.1 µM | ≥ 0.1 µM | – | – | C[C@@H](O)c1cc2cnc(Nc3ccc(N4CCNCC4=O)cn3)nc2c(N[C@H]2CCOC2)n1 [Compound 349]
10 | – | – | < 0.01 µM | ≥ 0.1 µM | CO[C@H](C)c1cc2cnc(Nc3ccc4c(n3)CCN(CCN(C)C)C4)nc2c(N[C@H]2CC[C@H](O)CC2)n1 [Compound 1180]
11 | < 0.01 µM | 0.01 to 0.1 µM | – | – | CC(C)Nc1nc(C(F)F)cc2cnc(Nc3ccc(N4CCNC(C)(C)C4)cn3)nc12 [Compound 181]
12 | – | – | < 0.01 µM | ≥ 0.1 µM | CC(C)Nc1nc([C@@H](C)O)cc2cnc(Nc3ccc(N4CCC(NC(C)C)CC4)nn3)nc12 [Compound 722]
13 | – | – | < 0.01 µM | ≥ 0.1 µM | C[C@@H](O)c1cc2cnc(Nc3ccc(CN4CCC(O)CC4)cn3)nc2c(NC(C)(C)C)n1 [Compound 1020]
14 | < 0.01 µM | ≥ 0.1 µM | – | – | C[C@@H](O)c1cc2cnc(Nc3ccc(C4CCNCC4)nn3)nc2c(NC2CCOCC2)n1 [Compound 317]
15 | – | – | 0.01 to 0.1 µM | ≥ 0.1 µM | CCCNc1nc([C@@H](C)OC)cc2cnc(Nc3ccc4c(n3)CCN(C(=O)CO)C4)nc12 [Compound 1111]
16 | < 0.01 µM | ≥ 0.1 µM | – | – | COCC(C)(C)Nc1nc([C@@H](C)O)cc2cnc(Nc3ccc(N4CCNCC4)cn3)nc12 [Compound 195, (R)-1-(8-(l-methoxy-2-methylpropan-2-ylamino)-2-(5-(piperazin-1-yl)pyridin-2-ylamino)pyrido[3,4-d]pyrimidin-6-yl)ethanol]
17 | – | – | < 0.01 µM | ≥ 0.1 µM | CC(C)CNc1nc([C@@H](C)O)cc2cnc(Nc3ccc(CN4CCC(O)CC4)cn3)nc12 [Compound 1023]
18 | < 0.01 µM | 0.01 to 0.1 µM | – | – | CC(C)Nc1nc(C(F)F)cc2cnc(Nc3ccc(N4CCNCC4)c(F)n3)nc12 [Compound 67]
19 | 0.01 to 0.1 µM | ≥ 0.1 µM | – | – | CC(=O)Nc1ccc(Nc2ncc3cc(C(F)F)nc(NC(C)C)c3n2)nc1 [Compound 86]

Row | IC50 (CDK4/cyclin D3; [1]) | IC50 (CDK2/cyclin A2; [2]) | IC50 (CDK4/cyclin D3; [3]) | IC50 (CDK2/cyclin A2; [4]) | SMILES
20 | – | – | < 0.01 µM | ≥ 0.1 µM | C[C@@H](O)c1cc2cnc(Nc3ccc4c(n3)CCN(C(=O)CO)C4)nc2c(N[C@H]2CC[C@@H](C)CC2)n1 [Compound 653]
21 | – | – | < 0.01 µM | ≥ 0.1 µM | CC(C)Nc1nc([C@@H](C)O)cc2cnc(Nc3ccc(C4CCN(CC(=O)O)CC4)cn3)nc12 [Compound 829]
22 | < 0.01 µM | ≥ 0.1 µM | – | – | C[C@@H](O)c1nc(NC2CCOCC2)c2nc(Nc3ccc(CN4CCNCC4)cn3)ncc2c1Cl [Compound 326]
23 | < 0.01 µM | ≥ 0.1 µM | – | – | CC(C)Nc1nc([C@@H](C)O)cc2cnc(Nc3ccc(CN4CCNC5(CC5)C4)cn3)nc12 [Compound 537]
24 | – | – | ≥ 0.1 µM | ≥ 0.1 µM | O=C1CNCCN1c1ccc(Nc2ncc3c(Cl)c(C(F)F)nc(NCC4CCOCC4)c3n2)nc1 [Compound 840]
25 | < 0.01 µM | ≥ 0.1 µM | – | – | C[C@@H](O)c1cc2cnc(Nc3ccc(N4CCN(C=O)CC4=O)cn3)nc2c(N[C@@H]2CCOC2)n1 [Compound 353]
26 | – | – | < 0.01 µM | ≥ 0.1 µM | CC(C)Nc1nc(C(C)O)cc2cnc(Nc3ccc(N4CCC(O)C5(CC5)C4)nn3)nc12 (single isomer, unassigned) [Compound 724]
27 | – | – | < 0.01 µM | ≥ 0.1 µM | CC(C)Nc1nc(C2CCCO2)cc2cnc(Nc3ccc(N4CCNCC4)nn3)nc12 (single isomer, unassigned) [Compound 713]
28 | – | – | < 0.01 µM | ≥ 0.1 µM | CC(C)Nc1nc([C@@H](C)O)cc2cnc(Nc3ccc(N4CCCC5(CCCN5)C4=O)cn3)nc12 (stereo partly drawn) [Compound 630]
29 | – | – | < 0.01 µM | ≥ 0.1 µM | CC(C)Nc1nc(C2CCOC2)cc2cnc(Nc3ccc(CN4CCN(CC#N)CC4)cn3)nc12 (stereo not drawn) [Compound 1014]
30 | – | – | < 0.01 µM | ≥ 0.1 µM | O=C(O)C1CCN(Cc2ccc(Nc3ncc4cc(C(F)F)nc(NC5CCC5)c4n3)nc2)CC1 [Compound 1099]
31 | – | – | < 0.01 µM | 0.01 to 0.1 µM | C[C@@H](O)c1cc2cnc(Nc3ccc(N4CCNCC4)nn3)nc2c(NC(C)(C)C)n1 [Compound 791]
32 | – | – | < 0.01 µM | 0.01 to 0.1 µM | CC(C)Nc1nc([C@@H](C)O)cc2cnc(Nc3ccc(C(=O)N4CCNC[C@H]4C)cn3)nc12 [Compound 1167]
33 | – | – | < 0.01 µM | ≥ 0.1 µM | C[C@@H](O)c1cc2cnc(Nc3ccc(CC4CCN(CCO)CC4)cn3)nc2c(NCC2CCOCC2)n1 [Compound 953]
34 | – | – | < 0.01 µM | ≥ 0.1 µM | CCCNc1nc([C@@H](C)O)cc2cnc(Nc3ccc(CN4CCCC(O)C4)cn3)nc12 (stereo partly drawn) [Compound 1081]
35 | < 0.01 µM | ≥ 0.1 µM | – | – | CC(C)Nc1nc([C@@H](C)O)cc2cnc(Nc3ccc(O[C@@H]4CCNC4)cn3)nc12 [Compound 572]
36 | < 0.01 µM | ≥ 0.1 µM | – | – | CC(C)Nc1nc(C(C)O)cc2cnc(Nc3ccc(N4CCNCC4)cn3)nc12 (stereo not drawn) [Compound 9]
37 | – | – | 0.01 to 0.1 µM | ≥ 0.1 µM | CC(C)CNc1nc(C(F)F)cc2cnc(Nc3ccc(CN4CCC(C(=O)O)CC4)cn3)nc12 [Compound 1098]
38 | – | – | 0.01 to 0.1 µM | ≥ 0.1 µM | CC(C)Nc1nc([C@@H](C)O)c(Cl)c2cnc(Nc3ccc(N4CCC(OCC(=O)O)CC4)nn3)nc12 [Compound 703]

Row | IC50 (CDK4/cyclin D3; [1]) | IC50 (CDK2/cyclin A2; [2]) | IC50 (CDK4/cyclin D3; [3]) | IC50 (CDK2/cyclin A2; [4]) | SMILES
39 | < 0.01 µM | 0.01 to 0.1 µM | – | – | CC(C)Nc1nc([C@@H](C)O)cc2cnc(Nc3ccc(N4CCCNCC4=O)cn3)nc12 [Compound 521]
40 | < 0.01 µM | ≥ 0.1 µM | – | – | Cc1c(CO)nc(NC(C)C)c2nc(Nc3ccc(N4CCNCC4)cn3)ncc12 [Compound 62]
41 | – | – | < 0.01 µM | ≥ 0.1 µM | CC(CN(C)C)Oc1ccc(Nc2ncc3cc([C@@H](C)O)nc(N[C@H]4CCCOC4)c3n2)nc1 (stereo partly drawn) [Compound 781]
42 | < 0.01 µM | ≥ 0.1 µM | – | – | CC(O)c1cc2cnc(Nc3ccc(N4CCNCC4)cn3)nc2c(NC(C)C(F)(F)F)n1 (stereo not drawn) [Compound 54]
43 | < 0.01 µM | ≥ 0.1 µM | – | – | CC(C)Nc1nc(C(F)F)cc2cnc(Nc3ccc(CCCC(N)=O)cn3)nc12 [Compound 135]
44 | – | – | < 0.01 µM | ≥ 0.1 µM | CO[C@H](C)c1cc2cnc(Nc3ccc(CN4CCNCC4)cn3)nc2c(NC(C)C2CCOCC2)n1 (stereo partly drawn) [Compound 928]
45 | – | – | < 0.01 µM | ≥ 0.1 µM | CC(C)Nc1nc([C@@H](C)O)cc2cnc(Nc3ccc4c(n3)CCN(CCN3CCCC3=O)C4)nc12 [Compound 955]
46 | – | – | < 0.01 µM | ≥ 0.1 µM | CO[C@H](C)c1cc2cnc(Nc3ccc4c(n3)CCN(CCO)C4)nc2c(N[C@H]2CCCOC2)n1 [Compound 1121]
47 | < 0.01 µM | ≥ 0.1 µM | – | – | CC(O)c1cc2cnc(Nc3ccc(N4CCNCC4)cn3)nc2c(NC(C)c2ccccc2)n1 (stereo not drawn) [Compound 70]
48 | 0.01 to 0.1 µM | ≥ 0.1 µM | – | – | CC(C)Nc1nc(C(F)F)cc2cnc(Nc3ccc(-c4cnn(C)c4)cn3)nc12 [Compound 188]
49 | – | – | < 0.01 µM | ≥ 0.1 µM | CC(C)Nc1nc([C@@H](C)O)cc2cnc(Nc3ccc(C4CCCNC(C)C4=O)cn3)nc12 (stereo partly drawn) [Compound 686]
50 | – | – | < 0.01 µM | ≥ 0.1 µM | CO[C@H](C)c1cc2cnc(Nc3ccc(NC(=O)C4CCCCN4)cn3)nc2c(NC(C)C)n1 (stereo partly drawn) [Compound 838]
51 | – | – | 0.01 to 0.1 µM | ≥ 0.1 µM | CO[C@H](C)c1cc2cnc(Nc3ccc(N4CCN(C(=O)OC(C)C)CC4)nn3)nc2c(NC(C)C)n1 [Compound 748]
52 | – | – | < 0.01 µM | ≥ 0.1 µM | CCCNc1nc([C@@H](C)O)cc2cnc(Nc3ccc(C(=O)N4CCN(C)CC4)cn3)nc12 [Compound 1221]
53 | < 0.01 µM | ≥ 0.1 µM | – | – | CNC1(C)CCN(c2ccc(Nc3ncc4cc([C@@H](C)O)nc(NC(C)C)c4n3)nn2)CC1 [Compound 601]
54 | – | – | 0.01 to 0.1 µM | ≥ 0.1 µM | COC[C@H](C)Nc1nc([C@@H](C)O)c(Cl)c2cnc(Nc3ccc(N4CCC(O)CC4)nn3)nc12 [Compound 759]
55 | – | – | < 0.01 µM | ≥ 0.1 µM | CC(C)Nc1nc(C2(C)COC2)cc2cnc(Nc3ccc(N4CCNCC4)cn3)nc12 [Compound 1006]
56 | – | – | < 0.01 µM | ≥ 0.1 µM | CO[C@H](C)c1cc2cnc(Nc3ccc(N4CCNCC4)nn3)nc2c(NC(C)(C)C)n1 [Compound 709]
57 | – | – | < 0.01 µM | ≥ 0.1 µM | COC1CCC(Nc2nc(C(C)O)cc3cnc(Nc4ccc(OC5CCNCC5F)cn4)nc23)CC1 (stereo not drawn) [Compound 646]
